ChEMBL document CHEMBL1201862, “PubChem BioAssay data set” (2004)
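A five-concentration, 48-hour dose response in 96-well plates underlies each endpoint, interpolated linearly between surrounding concentrations. At the GI50, growth is halved.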 Calls of active or inactive are those of the source. No stated cut-off is given here; in the data, active = GI50 up to about 1.1 µM and inactive = higher.

How the values were obtained:
Test in all cases: NCI tumour cell line growth inhibition, 48 h
M14 = system: M14
OVCAR-4 = system: OVCAR-4
DU-145 = system: DU-145
CAKI-1 = system: CAKI-1
RXF 393 = system: RXF 393
786-0 = system: 786-0
OVCAR-5 = system: OVCAR-5
MOLT-4 = system: MOLT-4
OVCAR-3 = system: OVCAR-3
SK-OV-3 = system: SK-OV-3
COLO 205 = system: COLO 205
KM12 = system: KM12
SF-295 = system: SF-295
OVCAR-8 = system: OVCAR-8
NCI-H23 = system: NCI-H23
EKVX = system: EKVX
HOP-92 = system: HOP-92
BT-549 = system: BT-549
HOP-62 = system: HOP-62
SNB-19 = system: SNB-19
IGROV-1 = system: IGROV-1
A498 = system: A498
UO-31 = system: UO-31
A549 = system: A549
RPMI-8226 = system: RPMI-8226
SF-539 = system: SF-539
NCI-H522 = system: NCI-H522
UACC-62 = system: UACC-62
SW-620 = system: SW-620
ACHN = system: ACHN
MDA-MB-231 = system: MDA-MB-231
HL-60 = system: HL-60
Malme-3M = system: Malme-3M
SK-MEL-5 = system: SK-MEL-5
SF-268 = system: SF-268
HCC 2998 = system: HCC 2998
SN12C = system: SN12C
SR = system: SR
CCRF-CEM = system: CCRF-CEM
NCI-H226 = system: NCI-H226
HCT-116 = system: HCT-116
NCI-H460 = system: NCI-H460
T47D = system: T47D
HT-29 = system: HT-29
TK-10 = system: TK-10
SK-MEL-28 = system: SK-MEL-28
SK-MEL-2 = system: SK-MEL-2
K562 = system: K562
LOX IMVI = system: LOX IMVI
PC-3 = system: PC-3
U-251 = system: U-251
UACC-257 = system: UACC-257
SNB-75 = system: SNB-75
NCI/ADR-RES = system: NCI/ADR-RES
MCF7 = system: MCF7
MDA-N = system: MDA-N
MDA-MB-435 = system: MDA-MB-435
Hs-578T = system: Hs-578T
HCT-15 = system: HCT-15

OC1(c2cccs2)c2cccc(Cl)c2C(O)(c2cccs2)c2c(Cl)cccc21 (stereo not drawn)
GI50 (M14): > 100 µM (inactive)
GI50 (OVCAR-4): > 100 µM (inactive)
GI50 (DU-145): > 100 µM (inactive)
GI50 (CAKI-1): > 100 µM (inactive)
GI50 (RXF 393): > 100 µM (inactive)
GI50 (786-0): 34.4 µM (inactive)
GI50 (OVCAR-5): > 100 µM (inactive)
GI50 (MOLT-4): > 100 µM (inactive)
GI50 (OVCAR-3): > 100 µM (inactive)
GI50 (SK-OV-3): 81.5 µM (inactive)
GI50 (COLO 205): > 100 µM (inactive)
GI50 (KM12): > 100 µM (inactive)
GI50 (SF-295): 33.1 µM (inactive)
GI50 (OVCAR-8): 58.9 µM (inactive)
GI50 (NCI-H23): 54.6 µM (inactive)
GI50 (EKVX): > 100 µM (inactive)
GI50 (HOP-92): 93.1 µM (inactive)
GI50 (BT-549): 35.6 µM (inactive)
GI50 (HOP-62): 57.9 µM (inactive)
GI50 (SNB-19): 33.2 µM (inactive)
GI50 (IGROV-1): 88.5 µM (inactive)
GI50 (A498): > 100 µM (inactive)
GI50 (UO-31): > 100 µM (inactive)
GI50 (A549): > 100 µM (inactive)
GI50 (RPMI-8226): > 100 µM (inactive)
GI50 (SF-539): 37 µM (inactive)
GI50 (NCI-H522): 96.6 µM (inactive)
GI50 (UACC-62): 34.3 µM (inactive)
GI50 (SW-620): > 100 µM (inactive)
GI50 (ACHN): > 100 µM (inactive)
GI50 (MDA-MB-231): 18.5 µM (inactive)
GI50 (HL-60): > 100 µM (inactive)
GI50 (Malme-3M): 80.2 µM (inactive)
GI50 (SK-MEL-5): > 100 µM (inactive)
GI50 (SF-268): 22.3 µM (inactive)
GI50 (HCC 2998): > 100 µM (inactive)
GI50 (SN12C): 93.8 µM (inactive)
GI50 (SR): 36.6 µM (inactive)
GI50 (CCRF-CEM): 93.3 µM (inactive)
GI50 (NCI-H226): > 100 µM (inactive)
GI50 (HCT-116): > 100 µM (inactive)
GI50 (NCI-H460): > 100 µM (inactive)
GI50 (T47D): > 100 µM (inactive)
GI50 (HT-29): > 100 µM (inactive)
GI50 (TK-10): > 100 µM (inactive)
GI50 (SK-MEL-28): > 100 µM (inactive)
GI50 (SK-MEL-2): 37.2 µM (inactive)
GI50 (K562): > 100 µM (inactive)
GI50 (LOX IMVI): > 100 µM (inactive)
GI50 (PC-3): 99.3 µM (inactive)
GI50 (U-251): 26.6 µM (inactive)
GI50 (UACC-257): > 100 µM (inactive)
GI50 (SNB-75): 47.4 µM (inactive)
GI50 (NCI/ADR-RES): 63.5 µM (inactive)
GI50 (MCF7): > 100 µM (inactive)
GI50 (MDA-N): > 100 µM (inactive)
GI50 (MDA-MB-435): > 100 µM (inactive)
GI50 (Hs-578T): 9.84 µM (inactive)
GI50 (HCT-15): > 100 µM

COC(=O)/C=C1/OC(c2ccc(Br)cc2)=C(Br)C1=O
GI50 (M14): 4.93 µM (inactive)
GI50 (OVCAR-4): 5.16 µM (inactive)
GI50 (DU-145): 12.7 µM (inactive)
GI50 (CAKI-1): 2.33 µM (inactive)
GI50 (RXF 393): 4.94 µM (inactive)
GI50 (786-0): 2.4 µM (inactive)
GI50 (OVCAR-5): 6.34 µM (inactive)
GI50 (MOLT-4): 2.42 µM (inactive)
GI50 (OVCAR-3): 4.35 µM (inactive)
GI50 (SK-OV-3): 19.9 µM (inactive)
GI50 (COLO 205): 1.89 µM (inactive)
GI50 (KM12): 8.07 µM (inactive)
GI50 (SF-295): 14.1 µM (inactive)
GI50 (OVCAR-8): 3.29 µM (inactive)
GI50 (NCI-H23): 6.7 µM (inactive)
GI50 (EKVX): 13.2 µM (inactive)
GI50 (HOP-92): 7.48 µM (inactive)
GI50 (BT-549): 5.28 µM (inactive)
GI50 (HOP-62): 7.57 µM (inactive)
GI50 (SNB-19): 10.4 µM (inactive)
GI50 (IGROV-1): 6.34 µM (inactive)
GI50 (A498): 16.6 µM (inactive)
GI50 (UO-31): 11.7 µM (inactive)
GI50 (A549): 16 µM (inactive)
GI50 (RPMI-8226): 2.26 µM (inactive)
GI50 (SF-539): 5.94 µM (inactive)
GI50 (NCI-H522): 3.94 µM (inactive)
GI50 (UACC-62): 7.05 µM (inactive)
GI50 (SW-620): 2.6 µM (inactive)
GI50 (ACHN): 7.23 µM (inactive)
GI50 (MDA-MB-231): 2.43 µM (inactive)
GI50 (HL-60): 2.06 µM (inactive)
GI50 (Malme-3M): 7.94 µM (inactive)
GI50 (SK-MEL-5): 7.48 µM (inactive)
GI50 (SF-268): 6.93 µM (inactive)
GI50 (HCC 2998): 7.66 µM (inactive)
GI50 (SN12C): 6.92 µM (inactive)
GI50 (SR): 0.179 µM (active)
GI50 (CCRF-CEM): 1.82 µM (inactive)
GI50 (NCI-H226): 14.4 µM (inactive)
GI50 (HCT-116): 3 µM (inactive)
GI50 (NCI-H460): 14.5 µM (inactive)
GI50 (T47D): 5.55 µM (inactive)
GI50 (HT-29): 4.29 µM (inactive)
GI50 (TK-10): 6.59 µM (inactive)
GI50 (SK-MEL-28): 12 µM (inactive)
GI50 (SK-MEL-2): 10.6 µM (inactive)
GI50 (K562): 2.47 µM (inactive)
GI50 (LOX IMVI): 3.84 µM (inactive)
GI50 (PC-3): 6.93 µM (inactive)
GI50 (U-251): 2.57 µM (inactive)
GI50 (UACC-257): 13.3 µM (inactive)
GI50 (SNB-75): 7.43 µM (inactive)
GI50 (NCI/ADR-RES): 9.4 µM (inactive)
GI50 (MCF7): 10.5 µM (inactive)
GI50 (MDA-N): 5.26 µM (inactive)
GI50 (MDA-MB-435): 7.67 µM (inactive)
GI50 (Hs-578T): 8.38 µM (inactive)
GI50 (HCT-15): 5.14 µM
